Laboratory results taken from ChEMBL document CHEMBL1201862, “PubChem BioAssay data set” (2004).
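Five concentrations, 48 hours, 96-well plates. GI50: concentration for 50% inhibition of growth.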 The source made the active and inactive calls. Rule as the data show it: active = GI50 up to about 1.1 µM and inactive = higher.

Key:
Test in all cases: NCI anticancer screen, dose series, 48 h
[1] = test system: HCT-15
[2] = test system: PC-3
[3] = test system: SK-MEL-5
[4] = test system: SK-OV-3
[5] = test system: SF-268
[6] = test system: UACC-257
[7] = test system: NCI/ADR-RES
[8] = test system: 786-0
[9] = test system: EKVX
[10] = test system: COLO 205
[11] = test system: OVCAR-5
[12] = test system: HCC 2998
[13] = test system: NCI-H460
[14] = test system: SNB-75
[15] = test system: LOX IMVI
[16] = test system: SR
[17] = test system: K562
[18] = test system: UACC-62
[19] = test system: NCI-H226
[20] = test system: A549
[21] = test system: Hs-578T
[22] = test system: OVCAR-4
[23] = test system: HOP-92
[24] = test system: DU-145
[25] = test system: RXF 393
[26] = test system: SK-MEL-28
[27] = test system: SN12C
[28] = test system: HCT-116
[29] = test system: M14
[30] = test system: NCI-H23
[31] = test system: RPMI-8226
[32] = test system: Malme-3M
[33] = test system: SNB-19
[34] = test system: SK-MEL-2
[35] = test system: MDA-MB-435
[36] = test system: TK-10
[37] = test system: SF-539
[38] = test system: UO-31
[39] = test system: HT-29
[40] = test system: MCF7
[41] = test system: SF-295
[42] = test system: SW-620
[43] = test system: BT-549
[44] = test system: KM12
[45] = test system: OVCAR-8
[46] = test system: U-251
[47] = test system: A498
[48] = test system: OVCAR-3
[49] = test system: MDA-MB-231
[50] = test system: MDA-N
[51] = test system: IGROV-1
[52] = test system: ACHN
[53] = test system: T47D
[54] = test system: HOP-62
[55] = test system: NCI-H522
[56] = test system: CAKI-1
[57] = test system: CCRF-CEM
[58] = test system: MOLT-4

In the case of `COc1ccc(C(Nc2ccccn2)c2cc(C(C)(C)C)cc(C(C)(C)C)c2O)cc1` (stereo not given), the GI50 [1] is reported as 22.3 µM, the GI50 [2] is reported as 21.8 µM (inactive) and the GI50 [3] is reported as 16.3 µM (inactive). The GI50 [4] was 19.5 µM (inactive), the GI50 [5] was 5.65 µM (inactive) and the GI50 [6] was 26.2 µM (inactive). The GI50 [7] was 16 µM (inactive), the GI50 [8] was 21.4 µM (inactive) and the GI50 [9] was 36 µM (inactive). For the same compound, the GI50 [10] was 19 µM (inactive), the GI50 [11] was 42 µM (inactive) and the GI50 [12] was 12.3 µM (inactive). For the same compound, the GI50 [13] was 16.7 µM (inactive), the GI50 [14] was 13.8 µM (inactive) and the GI50 [15] was 13.9 µM (inactive). The GI50 [16] was 10.1 µM (inactive), the GI50 [17] was 55 µM (inactive) and the GI50 [18] was 17 µM (inactive). The GI50 [19] was 21.3 µM (inactive), the GI50 [20] was 30 µM (inactive) and the GI50 [21] was 6.07 µM (inactive). For the same compound, the GI50 [22] was 34.4 µM (inactive), the GI50 [23] was 31.6 µM (inactive) and the GI50 [24] was 7.76 µM (inactive). The GI50 [25] was 7.74 µM (inactive), the GI50 [26] was 50.4 µM (inactive) and the GI50 [27] was 18.1 µM (inactive). For the same compound, the GI50 [28] was 12.6 µM (inactive), the GI50 [29] was 16.4 µM (inactive) and the GI50 [30] was 17.1 µM (inactive). For the same compound, the GI50 [31] was 23.1 µM (inactive), the GI50 [32] was 10.4 µM (inactive) and the GI50 [33] was 61 µM (inactive). For the same compound, the GI50 [34] was 18.1 µM (inactive), the GI50 [35] was 17.4 µM (inactive) and the GI50 [36] was 49.7 µM (inactive). The GI50 [37] was 48.1 µM (inactive), the GI50 [38] was 29.9 µM (inactive) and the GI50 [39] was 22 µM (inactive). The GI50 [40] was 16.2 µM (inactive), the GI50 [41] was 12.4 µM (inactive) and the GI50 [42] was 19.2 µM (inactive). For the same compound, the GI50 [43] was 17 µM (inactive), the GI50 [44] was 14.9 µM (inactive) and the GI50 [45] was 43.4 µM (inactive). The GI50 [46] was 19.8 µM (inactive), the GI50 [47] was 54.8 µM (inactive) and the GI50 [48] was 11.4 µM (inactive). For the same compound, the GI50 [49] was 33.4 µM (inactive), the GI50 [50] was 20.7 µM (inactive) and the GI50 [51] was 24 µM (inactive). For the same compound, the GI50 [52] was 30.8 µM (inactive), the GI50 [53] was 6.67 µM (inactive) and the GI50 [54] was 16.9 µM (inactive). The GI50 [55] was 4.05 µM (inactive) and the GI50 [56] was 39.4 µM (inactive).
For `COC(=O)C1C/C(=C/N(C)C)C(=S)N1` (stereo not given), the GI50 [1] was > 100 µM, the GI50 [2] was > 100 µM (inactive) and the GI50 [3] was > 100 µM (inactive). The GI50 [4] was > 100 µM (inactive), the GI50 [5] was > 100 µM (inactive) and the GI50 [6] was > 100 µM (inactive). For the same compound, the GI50 [7] was > 100 µM (inactive), the GI50 [8] was > 100 µM (inactive) and the GI50 [9] was > 100 µM (inactive). The GI50 [10] was > 100 µM (inactive), the GI50 [11] was > 100 µM (inactive) and the GI50 [12] was > 100 µM (inactive). For the same compound, the GI50 [13] was 11.6 µM (inactive), the GI50 [14] was > 100 µM (inactive) and the GI50 [16] was > 100 µM (inactive). The GI50 [17] was > 100 µM (inactive), the GI50 [18] was > 100 µM (inactive) and the GI50 [20] was > 100 µM (inactive). For the same compound, the GI50 [21] was > 100 µM (inactive), the GI50 [22] was > 100 µM (inactive) and the GI50 [23] was 54.1 µM (inactive). For the same compound, the GI50 [24] was > 100 µM (inactive), the GI50 [25] was > 100 µM (inactive) and the GI50 [26] was > 100 µM (inactive). For the same compound, the GI50 [28] was > 100 µM (inactive), the GI50 [29] was > 100 µM (inactive) and the GI50 [30] was > 100 µM (inactive). The GI50 [31] was > 100 µM (inactive), the GI50 [32] was > 100 µM (inactive) and the GI50 [33] was > 100 µM (inactive). The GI50 [57] was > 100 µM (inactive), the GI50 [34] was > 100 µM (inactive) and the GI50 [35] was > 100 µM (inactive). For the same compound, the GI50 [36] was > 100 µM (inactive), the GI50 [38] was > 100 µM (inactive) and the GI50 [39] was > 100 µM (inactive). For the same compound, the GI50 [40] was > 100 µM (inactive), the GI50 [41] was > 100 µM (inactive) and the GI50 [42] was > 100 µM (inactive). The GI50 [43] was > 100 µM (inactive), the GI50 [44] was > 100 µM (inactive) and the GI50 [58] was > 100 µM (inactive). For the same compound, the GI50 [45] was > 100 µM (inactive), the GI50 [46] was > 100 µM (inactive) and the GI50 [47] was > 100 µM (inactive). The GI50 [48] was > 100 µM (inactive), the GI50 [49] was > 100 µM (inactive) and the GI50 [50] was > 100 µM (inactive). For the same compound, the GI50 [51] was > 100 µM (inactive), the GI50 [52] was > 100 µM (inactive) and the GI50 [53] was > 100 µM (inactive). The GI50 [54] was > 100 µM (inactive), the GI50 [55] was > 100 µM (inactive) and the GI50 [56] was > 100 µM (inactive).
